Article PMC9506414, “Novel 2,6,9-Trisubstituted Purines as Potent CDK Inhibitors Alleviating Trastuzumab-Resistance of HER2-Positive Breast Cancers” (Pharmaceuticals, 2022)
Like-named read-outs stand apart in the source and are kept apart here.

Legend:
CYP3A4 = CYP3A4 (Homo sapiens, UniProt P08684); experiment: CYP inhibition; format: in vitro ADME
Method: Table 6 In vitro liver metabolic stability and activity against CYPs of potent analogues. | column: CYP % Activity at 10 μM / 3A4

CDK12/CyclinK = CDK12/CyclinK (Homo sapiens, UniProt Q9NYV4); experiment: In vitro CDK12/cyclinK kinase assay; format: biochemical; set-up: purchased Reaction Biology Corp. (CRO that ran the assay)
Method: In vitro CDK12/cyclinK assays for all compounds and in vitro kinome-wide inhibition profiling of 30d at 10 μM were performed by a CRO company (Reaction Biology Corp., San Diego, CA, USA).

[1] = In vitro liver microsomal stability; format: in vitro ADME; details: liver microsomes, pH 7.4, 30 m at 37 °C with NADPH regeneration system
Method: Each compound (final 1 μM, duplicated) was added to each 0.1 M PBS solution (pH 7.4) containing liver microsome of three different species (human, dog, mouse). After a brief (5 m) incubation at 37 °C, the NADPH regeneration system (Promega Corp., Madison, WI, USA) was added, then the mixture was incubated at 37 °C for 30 m. The reaction was terminated by adding acetonitrile containing an internal standard (chlorpropamide), then the mixture was centrifuged at 15,000 rpm, 4 °C for 5 m. The supernatant solution was injected to LC/MS/MS system (TSQ Vantage Triple-Stage Quadrupole Mass Spectrometer, ThermoFisher Scientific, Waltham, MA, USA). The remaining substrates were analyzed with Xcalibur 4.4 s/w using an MRM (multiple reaction monitoring) quantitation mode.

CYP1A2 = target: T1, CYP1A2 (Homo sapiens, UniProt P05177); experiment: CYP inhibition; format: in vitro ADME
T1 sequence (P05177 1-516): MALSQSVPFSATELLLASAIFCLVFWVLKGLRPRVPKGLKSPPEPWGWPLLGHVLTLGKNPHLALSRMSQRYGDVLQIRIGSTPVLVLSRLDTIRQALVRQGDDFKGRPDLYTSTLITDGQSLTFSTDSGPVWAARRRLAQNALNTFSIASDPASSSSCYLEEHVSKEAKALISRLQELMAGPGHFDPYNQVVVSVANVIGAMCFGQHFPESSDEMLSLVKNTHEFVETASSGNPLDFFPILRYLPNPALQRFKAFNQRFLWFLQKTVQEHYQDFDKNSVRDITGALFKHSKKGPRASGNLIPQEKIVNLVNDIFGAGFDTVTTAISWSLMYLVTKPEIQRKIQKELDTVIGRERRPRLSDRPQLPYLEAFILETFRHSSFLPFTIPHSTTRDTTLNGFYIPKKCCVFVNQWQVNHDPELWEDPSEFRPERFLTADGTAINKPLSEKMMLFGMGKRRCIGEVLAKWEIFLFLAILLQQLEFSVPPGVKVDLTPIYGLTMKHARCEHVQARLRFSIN
Method: Table 6 In vitro liver metabolic stability and activity against CYPs of potent analogues. | column: CYP % Activity at 10 μM / 1A2

SK-Br3 cells = experiment: Antiproliferation assay (Cell-titer Glo, 72 h); format: cell-based; details: Homo sapiens, SK-BR-3; 72 h; means and standard deviations from three independent assays; read-out: SK-Br3 (GI50/μM)
Method: (§1) Breast-cancer cell lines (SK-Br3, HCC-1954) were purchased from Korea Cell Line Bank (Seoul, Korea) and were cultured in RPMI medium supplemented with 10% FBS and penicillin/streptomycin (Welgene, Seoul, Korea). All cell lines were maintained at 37 °C in a cell incubator in the presence of 5% CO2.
(§2) Breast-cancer cells in culture media (100 μL volume/well, 5000 SK-Br3 cells/well, 1000 HCC-1954 cells/well) were seeded in tissue culture-treated 96-well plates, and incubated at a cell incubator for 24 h. Serially diluted compounds (3-fold, 10 point from 10 mM, duplicated) were pre-plated and 500 nL of compound solutions were pin-transferred to the cells in the assay plates using pintool system (JANUS liquid handler, PerkinElmer, Waltham, MA, USA) and incubated at a cell incubator for 72 h. Cell-titer Glo^TM reagent (50 μL, Promega Corp., Madison, WI, USA) was added to each well, and the luminescence signal was read using an Envision^TM plate reader (PerkinElmer, Waltham, MA, USA). The titration curve fitting and IC50 values were generated using Prism 7.0 s/w (GraphPad, San Diego, CA, USA).

HCC1954 cells = experiment: Antiproliferation assay (Cell-titer Glo, 72 h); format: cell-based; details: Homo sapiens, 72 h, means and standard deviations from three independent assays, read-out: HCC1954 (GI50/μM)
Method: as §1, §2

CYP2C9 = CYP2C9 (Homo sapiens, UniProt P11712); experiment: CYP inhibition; format: in vitro ADME
Method: Table 6 In vitro liver metabolic stability and activity against CYPs of potent analogues. | column: CYP % Activity at 10 μM / 2C9

CYP2C19 = CYP2C19 (Homo sapiens, UniProt P33261); experiment: CYP inhibition; format: in vitro ADME
Method: Table 6 In vitro liver metabolic stability and activity against CYPs of potent analogues. | column: CYP % Activity at 10 μM / 2C19

CYP2D6 = CYP2D6 (Homo sapiens, UniProt P10635); experiment: CYP inhibition; format: in vitro ADME
Method: Table 6 In vitro liver metabolic stability and activity against CYPs of potent analogues. | column: CYP % Activity at 10 μM / 2D6

[2] = Table 5, means and standard deviations from three independent assays, read-out: CDK12/CyclinK (IC50/μM)

CYP2C9, sequence (P11712 whole entry): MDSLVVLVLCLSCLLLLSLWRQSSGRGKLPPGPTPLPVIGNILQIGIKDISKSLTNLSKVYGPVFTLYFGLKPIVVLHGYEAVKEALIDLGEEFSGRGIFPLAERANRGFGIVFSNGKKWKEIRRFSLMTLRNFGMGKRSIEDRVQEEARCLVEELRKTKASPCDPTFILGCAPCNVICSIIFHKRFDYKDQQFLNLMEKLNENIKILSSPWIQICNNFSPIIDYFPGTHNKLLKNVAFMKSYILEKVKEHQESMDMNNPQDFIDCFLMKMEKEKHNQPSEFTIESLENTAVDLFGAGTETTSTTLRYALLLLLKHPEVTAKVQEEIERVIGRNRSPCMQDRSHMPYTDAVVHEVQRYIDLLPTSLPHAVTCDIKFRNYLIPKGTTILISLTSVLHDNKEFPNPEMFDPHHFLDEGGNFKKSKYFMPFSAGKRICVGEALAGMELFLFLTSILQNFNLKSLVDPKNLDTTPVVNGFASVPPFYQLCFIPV
CDK12/CyclinK, sequence (Q9NYV4 whole entry): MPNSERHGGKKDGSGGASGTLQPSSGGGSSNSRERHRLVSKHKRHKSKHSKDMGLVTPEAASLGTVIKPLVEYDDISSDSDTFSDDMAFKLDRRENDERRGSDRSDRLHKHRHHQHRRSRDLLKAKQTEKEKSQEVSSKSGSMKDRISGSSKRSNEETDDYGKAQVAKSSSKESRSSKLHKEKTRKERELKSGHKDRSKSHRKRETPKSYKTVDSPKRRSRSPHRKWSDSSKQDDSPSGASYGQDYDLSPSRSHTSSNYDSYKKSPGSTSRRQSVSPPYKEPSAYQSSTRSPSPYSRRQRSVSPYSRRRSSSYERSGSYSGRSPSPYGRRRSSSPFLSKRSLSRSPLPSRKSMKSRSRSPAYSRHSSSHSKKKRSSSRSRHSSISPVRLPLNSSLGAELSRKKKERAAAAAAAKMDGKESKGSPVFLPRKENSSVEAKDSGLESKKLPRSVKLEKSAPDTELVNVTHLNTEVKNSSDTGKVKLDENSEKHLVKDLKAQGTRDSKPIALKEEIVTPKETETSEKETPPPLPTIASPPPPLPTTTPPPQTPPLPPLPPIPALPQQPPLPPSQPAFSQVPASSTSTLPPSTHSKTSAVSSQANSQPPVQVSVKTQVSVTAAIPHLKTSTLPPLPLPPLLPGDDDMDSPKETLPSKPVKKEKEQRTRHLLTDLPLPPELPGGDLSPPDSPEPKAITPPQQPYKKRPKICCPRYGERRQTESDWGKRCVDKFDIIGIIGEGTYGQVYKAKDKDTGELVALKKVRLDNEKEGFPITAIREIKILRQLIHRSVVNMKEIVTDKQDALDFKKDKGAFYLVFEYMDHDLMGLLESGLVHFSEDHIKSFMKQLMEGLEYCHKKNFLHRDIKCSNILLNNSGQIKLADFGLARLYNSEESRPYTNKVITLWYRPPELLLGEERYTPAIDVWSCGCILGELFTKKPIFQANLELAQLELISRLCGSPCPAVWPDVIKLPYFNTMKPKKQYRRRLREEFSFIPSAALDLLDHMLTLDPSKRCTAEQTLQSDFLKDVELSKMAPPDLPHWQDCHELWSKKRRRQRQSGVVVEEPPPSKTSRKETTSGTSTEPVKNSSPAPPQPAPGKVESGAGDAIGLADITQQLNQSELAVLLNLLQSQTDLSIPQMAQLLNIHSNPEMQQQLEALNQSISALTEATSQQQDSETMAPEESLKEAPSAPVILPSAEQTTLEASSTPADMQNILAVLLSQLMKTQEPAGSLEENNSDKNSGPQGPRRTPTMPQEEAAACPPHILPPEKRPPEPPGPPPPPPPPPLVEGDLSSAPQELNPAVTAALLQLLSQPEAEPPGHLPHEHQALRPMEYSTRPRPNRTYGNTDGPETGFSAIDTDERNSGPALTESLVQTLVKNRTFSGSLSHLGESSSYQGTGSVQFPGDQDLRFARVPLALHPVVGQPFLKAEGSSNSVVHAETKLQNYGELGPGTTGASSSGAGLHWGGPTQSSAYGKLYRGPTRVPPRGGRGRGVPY
CDK12/CyclinK, sequence (O75909 whole entry partner): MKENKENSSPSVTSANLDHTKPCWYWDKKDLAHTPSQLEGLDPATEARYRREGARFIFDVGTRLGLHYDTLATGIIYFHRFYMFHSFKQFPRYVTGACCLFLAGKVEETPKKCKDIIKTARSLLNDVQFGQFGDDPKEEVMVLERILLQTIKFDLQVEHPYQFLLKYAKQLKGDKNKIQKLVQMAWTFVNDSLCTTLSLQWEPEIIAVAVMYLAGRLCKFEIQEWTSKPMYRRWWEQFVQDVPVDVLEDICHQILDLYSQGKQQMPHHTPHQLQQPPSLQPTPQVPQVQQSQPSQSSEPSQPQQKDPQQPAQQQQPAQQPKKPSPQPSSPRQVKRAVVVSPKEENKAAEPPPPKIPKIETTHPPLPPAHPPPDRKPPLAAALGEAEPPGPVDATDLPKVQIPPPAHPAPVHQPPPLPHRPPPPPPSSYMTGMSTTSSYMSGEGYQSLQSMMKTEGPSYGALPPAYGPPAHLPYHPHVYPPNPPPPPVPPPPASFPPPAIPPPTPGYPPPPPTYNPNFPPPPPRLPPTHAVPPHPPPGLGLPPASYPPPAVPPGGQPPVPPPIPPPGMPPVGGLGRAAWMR
CYP2D6, sequence (P10635 whole entry): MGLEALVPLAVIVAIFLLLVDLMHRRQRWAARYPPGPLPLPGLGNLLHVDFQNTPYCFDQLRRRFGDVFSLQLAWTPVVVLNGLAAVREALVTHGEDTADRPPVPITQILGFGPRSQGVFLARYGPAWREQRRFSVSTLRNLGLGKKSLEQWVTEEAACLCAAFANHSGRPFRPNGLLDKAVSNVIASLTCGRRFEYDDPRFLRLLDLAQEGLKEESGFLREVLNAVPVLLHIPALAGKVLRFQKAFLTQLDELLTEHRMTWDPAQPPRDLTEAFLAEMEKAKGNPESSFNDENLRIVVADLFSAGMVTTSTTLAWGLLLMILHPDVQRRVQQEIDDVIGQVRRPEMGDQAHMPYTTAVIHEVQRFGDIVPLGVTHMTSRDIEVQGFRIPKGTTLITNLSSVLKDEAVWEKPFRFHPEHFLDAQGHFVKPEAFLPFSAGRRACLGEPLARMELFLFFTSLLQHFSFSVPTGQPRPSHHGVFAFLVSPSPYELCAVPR
CYP2C19, sequence (P33261 whole entry): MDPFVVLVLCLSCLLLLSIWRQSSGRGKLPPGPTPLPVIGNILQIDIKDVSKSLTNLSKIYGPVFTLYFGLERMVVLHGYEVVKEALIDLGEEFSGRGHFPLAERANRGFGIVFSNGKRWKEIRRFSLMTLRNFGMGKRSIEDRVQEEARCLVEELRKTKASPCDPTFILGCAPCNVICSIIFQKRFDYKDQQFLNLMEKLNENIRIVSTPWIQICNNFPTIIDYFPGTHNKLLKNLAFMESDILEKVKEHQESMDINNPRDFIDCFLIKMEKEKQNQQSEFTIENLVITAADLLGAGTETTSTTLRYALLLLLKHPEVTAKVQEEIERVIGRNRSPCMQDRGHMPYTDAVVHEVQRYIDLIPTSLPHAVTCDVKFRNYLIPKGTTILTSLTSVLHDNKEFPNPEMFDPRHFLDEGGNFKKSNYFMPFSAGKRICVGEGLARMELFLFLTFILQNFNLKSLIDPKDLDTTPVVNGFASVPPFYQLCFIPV
CYP3A4, sequence (P08684 whole entry): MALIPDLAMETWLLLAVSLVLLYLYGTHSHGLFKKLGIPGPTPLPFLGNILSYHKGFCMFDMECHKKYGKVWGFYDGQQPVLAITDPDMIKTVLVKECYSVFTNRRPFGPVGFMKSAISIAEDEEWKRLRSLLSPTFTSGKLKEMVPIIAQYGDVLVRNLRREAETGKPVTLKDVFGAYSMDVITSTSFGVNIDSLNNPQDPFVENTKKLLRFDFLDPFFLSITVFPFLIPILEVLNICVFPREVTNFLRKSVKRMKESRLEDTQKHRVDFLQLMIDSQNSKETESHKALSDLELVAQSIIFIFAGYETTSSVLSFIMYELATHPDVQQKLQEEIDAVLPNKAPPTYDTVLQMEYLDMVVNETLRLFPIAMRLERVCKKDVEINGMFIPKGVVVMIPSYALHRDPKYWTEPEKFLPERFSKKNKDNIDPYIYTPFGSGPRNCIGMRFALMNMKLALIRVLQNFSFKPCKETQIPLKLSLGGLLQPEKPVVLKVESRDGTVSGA

CYP % Activity at 10 μM 3A4 (CYP3A4)	IC50 (CDK12/CyclinK; [2])	IC50 (CDK12/CyclinK; read-out: CDK12/cyclinK IC50)	remaining at 30 min, 1 μM ([1]; dog)	remaining at 30 min, 1 μM ([1]; human)	remaining at 30 min, 1 μM ([1]; mouse)	CYP % Activity at 10 μM 1A2 (CYP1A2)	GI50 (SK-Br3 cells)	GI50 (HCC1954 cells)	CYP % Activity at 10 μM 2C9 (CYP2C9)	CYP % Activity at 10 μM 2C19 (CYP2C19)	CYP % Activity at 10 μM 2D6 (CYP2D6)	SMILES
38.9%	0.029 ± 0.015 µM	< 0.03 µM	45.1%	32.2%	35.3%	59.3%	0.136 ± 0.016 µM	0.104 ± 0.003 µM	73.0%	76.8%	89.6%	CCn1cnc2c(NCc3ccc(-c4ccnc(C)c4)nc3)nc(-c3ccc(N)nc3)nc21 [Compound 30a, 2-(6-Aminopyridin-3-yl)-9-ethyl-N-((2′-methyl-[2,4′-bipyridin]-5-yl)methyl)-9H-purin-6-amine]
72.4%	0.028 ± 0.008 µM	< 0.03 µM	53.6%	40.6%	45%	74.9%	0.09 ± 0.008 µM	0.08 ± 0.007 µM	82.9%	75.4%	85.7%	CCn1cnc2c(NCc3ccc(-c4ccnc(C)c4)nc3)nc(-c3cnc(N)nc3)nc21 [Compound 30b, 2-(2-Aminopyrimidin-5-yl)-9-ethyl-N-((2′-methyl-[2,4′-bipyridin]-5-yl)methyl)-9H-purin-6-amine]
31.8%	0.064 ± 0.012 µM	–	79.5%	27.3%	34%	68.6%	0.189 ± 0.057 µM	0.157 ± 0.022 µM	67.5%	73.9%	88.8%	CCn1cnc2c(NCc3ccc(-c4ccnc(C)c4)nc3)nc(-c3cncnc3)nc21 [Compound 30c, 9-Ethyl-N-((2′-methyl-[2,4′-bipyridin]-5-yl)methyl)-2-(pyrimidin-5-yl)-9H-purin-6-amine]
